Experimental data: patent US7973055B2, “Crystalline forms of a biphenyl compound” (Theravance, Inc., priority 2006, dated 2011)

Test system: ACh-induced bronchoconstriction
Experiment: Duration of bronchoprotection in guinea pig model of acetylcholine-induced bronchoconstriction
Type: in vivo
Settings: inhalation, 1.5 hours post-dose, expected
Description: Groups of six male guinea pigs (Duncan-Hartley (HsdPoc:DH) Harlan, Madison, Wis.) weighing between 250 and 350 g are individually identified by cage cards. Throughout the study, animals are allowed access to food and water ad libitum.
Test compounds are administered via inhalation over 10 minutes in a whole-body exposure dosing chamber (R&S Molds, San Carlos, Calif.). The dosing chambers are arranged so that an aerosol was simultaneously delivered to 6 individual chambers from a central manifold. Guinea pigs are exposed to an aerosol of a test compound or vehicle (WFI). […] This is measured gravimetrically by comparing pre-and post-nebulization weights of the filled nebulizer.
The bronchoprotective effects of test compounds administered via inhalation are evaluated using whole body plethysmography at 1.5, 24, 48 and 72 hours post-dose.
Forty-five minutes prior to the start of the pulmonary evaluation, each guinea pig is anesthetized with an intramuscular injection of ketamine (43.75 mg/kg), xylazine (3.50 mg/kg) and acepromazine (1.05 mg/kg). […] The depth of anesthesia is monitored and adjusted if the animal responds to pinching of its paw or if the respiration rate is greater than 100 breaths/minute. […]
Starting this program initiates the experimental protocol and data collection. […] By integrating this signal over time, a measurement of […] is calculated for each breath. […]

CN(CCN1CCC(OC(=O)Nc2ccccc2-c2ccccc2)CC1)C(=O)c1cccc(C(=O)NCCNCc2ccc(O)cc2)c1 [compound of formula I, biphenyl-2-ylcarbamic acid 1-[2-({3-[2-(4-hydroxybenzylamino)ethylcarbamoyl]benzoyl}methylamino)ethyl]piperidin-4-yl ester]
PD2(50) for ACh-induced bronchoconstriction: less than 200 μg/mL
